The record followed here is publication PMC7407272, “Induction of Lysosome Membrane Permeabilization as a Therapeutic Strategy to Target Pancreatic Cancer Stem Cells” (Cancers, 2020).

One test deals with PDAC1 xenografts. The experiment in a line: PDX treatment in nude mice. It is filed as in vivo, NU-Foxn1nu nude mice. The note with it: PDAC1 PDX; GEM 125 mg/kg i.p. biweekly, SIR 30 mg/kg oral gavage; 23 days. As for the experimental part: (§1) Cells were analyzed with a 4-laser Attune NxT Acoustic Cytometer (ThermoFisher Scientific). Cells and digested tumors (as described in [41]) were resuspended in FLOW buffer (1X PBS; 3 mM EDTA (v/v); 3% FBS (v/v)), and the following fluorescently-tagged antibodies were used to label cells for 30 min at 4 °C: Mouse monoclonal anti-human CD133-PE (1:20, Cat no. 130-110-962, Miltenyi, Bergisch Gladbach, Germany), Mouse monoclonal anti-human CD133-APC (1:20, Cat no. 130-111-080, Miltenyi, Bergisch Gladbach, Germany), mouse monoclonal anti-human C-X-C chemokine receptor type 4- Phycoerythrin (CXCR4-PE) (1:20, Cat no. 130-117-354, Miltenyi, Bergisch Gladbach, Germany), or mouse monoclonal anti-human Epithelial cell adhesion molecule-fluorescein isothiocyanate (EpCAM-FITC) (1:20, Cat no. 130-111-115, Miltenyi, Bergisch Gladbach, Germany). Autofluorescent cells were excited with blue laser 488nm and selected as the intersection with the filters 530/40 and 580/30 as previously described. For lysosomes quantification, Acridine Orange (AO) (A1301, Thermo Fisher Scientific, Waltham, MA, USA) or Lysotracker Deep Red (DR) (L12492, Molecular probes, Life Technologies, Waltham, MA, USA) were used. AO fluorescence was assessed with two combinations of excitation and emission spectra: BL1 […] BL3 (Ex488/Em695/40, equal to the far-red channel (>670 nm)) Lysotracker DR fluorescence was assessed with RL1 (Ex638/Em670/14). Bafilomycin A1 (100 nM, Calbiochem, San Diego, CA, USA) was included as a positive control for lysosome disruption. For Annexin V staining, floating and attached cells were pooled and resuspended in 1× AnnexinV staining buffer containing AnnexinV-APC diluted 1:20 (Biotium, Freemont, CA, USA) and incubated for 20 min at room temperature prior to flow cytometric analysis. For all assays, DAPI was used to mark and exclude dead cells, and data were analyzed using the software FlowJo v9.3 (Tree Star Inc., Ashland, OR, USA).
(§2) Female 6- to 8-week-old NU-Foxn1nu nude mice (Envigo, Spain) were subcutaneously injected with control or pre-treated 1 × 10^4 PDAC cells in 50 µL of Matrigel^TM (Corning). Tumor growth was monitored bi-weekly for up to 10 weeks. For Siramesine experiments, mice were subcutaneously implanted with PDAC1 and PDAC3 PDXs. After 4 weeks of tumor growth, mice were randomized into treatment groups (5 mice per group). Mice were treated with Siramesine twice a week (30 mg/kg by oral gavage formulated in 0.5% methylcellulose 15 cP in 0.9% NaCl solution) for ~4 weeks. Gemcitabine (GEMZAR®, Eli Lilly, Indianapolis, IN, USA) was administered twice a week (125 mg/kg i.p.) for ~4 weeks. Tumor volumes (mm^3) were determined twice per week using a digital caliper. Mice were sacrificed at 24 days post treatment initiation and tumors were extracted and analyzed by flow cytometry as described above. For second generation tumor formation, 1000 and 100 cells of indicated treatment groups were resuspended in Matrigel ^TM and injected subcutaneously in recipient NU-Foxn1nu nude mice and tumor formation was monitored for 10 weeks. Mice were housed according to institutional guidelines and all experiments were performed in compliance with the institutional guidelines for the welfare of experimental animals approved by the Universidad Autónoma de Madrid Ethics Committee (CEI 60-1057-A068) or by the Instituto de Salud Carlos III Ethics Committee (CBA12_2014-v3) and La Comunidad de Madrid (PROEX 335/14 or PROEX 53/14) and in accordance with the guidelines for Ethical Conduct in the Care and Use of Animals as stated in The International Guiding Principles for Biomedical Research involving Animals, developed by the Council for International Organizations of Medical Sciences (CIOMS).

Another test concerns PDAC3 xenografts. Nature of the test: PDX treatment in nude mice. The format is in vivo, NU-Foxn1nu nude mice. As for the experimental part:
as §1, §2

In another test the target is T1, EPHB4 (Homo sapiens, UniProt P54760).
T1 construct: purchased DiscoveRx KINOMEscan
The experiment in a line: KINOMEscan. Conditions: read-out: % Ctrl. The format is binding.

Another test deals with T2, MKK7 (Homo sapiens, UniProt O14733).
T2 construct: purchased DiscoveRx KINOMEscan
Nature of the test: KINOMEscan. It is filed as binding. The note with it: read-out: % Ctrl.

A further test deals with T3, AXL (Homo sapiens, UniProt P30530).
T3 construct: purchased DiscoveRx KINOMEscan
The experiment in a line: KINOMEscan. It is filed as binding. Conditions: read-out: % Ctrl.

The target in a further test is T4, CSNK1G2 (Homo sapiens, UniProt P78368).
T4 construct: purchased DiscoveRx KINOMEscan
The experiment in a line: KINOMEscan. It is filed as binding. Conditions: read-out: % Ctrl.

Another test deals with T5, FLT1 (Homo sapiens, UniProt P17948).
T5 construct: purchased DiscoveRx KINOMEscan
T5 sequence (P17948 27-1338): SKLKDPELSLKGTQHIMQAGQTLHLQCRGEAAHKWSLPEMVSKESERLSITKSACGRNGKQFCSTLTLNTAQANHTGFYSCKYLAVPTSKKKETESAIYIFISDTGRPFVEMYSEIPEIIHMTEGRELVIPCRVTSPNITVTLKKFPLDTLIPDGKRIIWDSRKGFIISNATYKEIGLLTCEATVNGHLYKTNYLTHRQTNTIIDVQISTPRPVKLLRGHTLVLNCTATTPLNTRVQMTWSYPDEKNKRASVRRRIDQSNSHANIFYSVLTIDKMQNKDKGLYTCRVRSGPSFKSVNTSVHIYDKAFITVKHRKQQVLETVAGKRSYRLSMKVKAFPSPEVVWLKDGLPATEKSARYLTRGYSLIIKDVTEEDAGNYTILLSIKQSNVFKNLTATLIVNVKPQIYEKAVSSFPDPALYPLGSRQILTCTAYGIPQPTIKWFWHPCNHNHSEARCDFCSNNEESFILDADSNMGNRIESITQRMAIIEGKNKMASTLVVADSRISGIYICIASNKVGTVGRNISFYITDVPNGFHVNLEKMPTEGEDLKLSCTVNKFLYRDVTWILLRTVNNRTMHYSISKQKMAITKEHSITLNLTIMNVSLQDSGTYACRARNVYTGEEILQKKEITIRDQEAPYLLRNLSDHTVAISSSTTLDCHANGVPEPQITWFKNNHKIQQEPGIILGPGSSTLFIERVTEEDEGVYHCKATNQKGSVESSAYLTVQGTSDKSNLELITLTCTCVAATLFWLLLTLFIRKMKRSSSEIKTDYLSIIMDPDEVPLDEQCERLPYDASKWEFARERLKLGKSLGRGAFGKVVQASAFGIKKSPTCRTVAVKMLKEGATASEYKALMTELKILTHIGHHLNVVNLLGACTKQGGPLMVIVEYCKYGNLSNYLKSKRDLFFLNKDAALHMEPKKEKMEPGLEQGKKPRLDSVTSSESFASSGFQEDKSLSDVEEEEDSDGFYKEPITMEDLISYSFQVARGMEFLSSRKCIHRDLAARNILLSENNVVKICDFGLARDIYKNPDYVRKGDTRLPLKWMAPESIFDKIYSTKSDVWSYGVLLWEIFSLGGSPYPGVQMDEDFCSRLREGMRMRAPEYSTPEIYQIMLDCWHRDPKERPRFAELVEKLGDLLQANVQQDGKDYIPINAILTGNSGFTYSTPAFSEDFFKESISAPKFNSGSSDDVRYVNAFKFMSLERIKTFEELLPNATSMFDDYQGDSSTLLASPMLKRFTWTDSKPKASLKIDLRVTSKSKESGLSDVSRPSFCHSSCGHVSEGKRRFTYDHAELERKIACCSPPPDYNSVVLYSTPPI
Nature of the test: KINOMEscan. Conditions: read-out: % Ctrl. The format is binding.

In a further test the target is T6, KIT(D816V) (Homo sapiens, UniProt P10721, D816V).
T6 construct: purchased DiscoveRx KINOMEscan
The experiment in a line: KINOMEscan. It is filed as binding. The note with it: read-out: % Ctrl.

The next test concerns the target T7, CDK11 (Homo sapiens, UniProt Q9BWU1).
T7 construct: purchased DiscoveRx KINOMEscan
The experiment in a line: KINOMEscan. Conditions: read-out: % Ctrl. The format is binding.

A further test addresses T8, GSK3B (Homo sapiens, UniProt P49841).
T8 construct: purchased DiscoveRx KINOMEscan
The experiment in a line: KINOMEscan. It is filed as binding. The note with it: read-out: % Ctrl.

Another test deals with T9, LIMK2 (Homo sapiens, UniProt P53671).
T9 construct: purchased DiscoveRx KINOMEscan
The experiment in a line: KINOMEscan. The format is binding. Conditions: read-out: % Ctrl.

Another test addresses T10, PRKCI (Homo sapiens, UniProt P41743).
T10 construct: purchased DiscoveRx KINOMEscan
The experiment in a line: KINOMEscan. It is filed as binding. Conditions: read-out: % Ctrl.

In the next test the target is T11, FGR (Homo sapiens, UniProt P09769).
T11 construct: purchased DiscoveRx KINOMEscan
Nature of the test: KINOMEscan. The note with it: read-out: % Ctrl. The format is binding.

The next test has as its target T12, JNK3 (Homo sapiens, UniProt P53779).
T12 construct: purchased DiscoveRx KINOMEscan
The experiment in a line: KINOMEscan. It is filed as binding. The note with it: read-out: % Ctrl.

The next test addresses T13, TGFBR2 (Homo sapiens, UniProt P37173).
T13 construct: purchased DiscoveRx KINOMEscan
The experiment in a line: KINOMEscan. It is filed as binding. Conditions: read-out: % Ctrl.

The target in another test is T14, DYRK1B (Homo sapiens, UniProt Q9Y463).
T14 construct: purchased DiscoveRx KINOMEscan
Nature of the test: KINOMEscan. Conditions: read-out: % Ctrl. It is filed as binding.

A further test addresses T15, PIK3CA(E545K) (Homo sapiens, UniProt P42336, E545K).
T15 construct: purchased DiscoveRx KINOMEscan
Nature of the test: KINOMEscan. It is filed as binding. The note with it: read-out: % Ctrl.

Another test addresses T16, CSNK1G1 (Homo sapiens, UniProt Q9HCP0).
T16 construct: purchased DiscoveRx KINOMEscan
Nature of the test: KINOMEscan. The note with it: read-out: % Ctrl. It is filed as binding.

A further test concerns the target T17, ALK (Homo sapiens, UniProt Q9UM73).
T17 construct: purchased DiscoveRx KINOMEscan
Nature of the test: KINOMEscan. The format is binding. The note with it: read-out: % Ctrl.

T12 sequence (P53779 whole entry): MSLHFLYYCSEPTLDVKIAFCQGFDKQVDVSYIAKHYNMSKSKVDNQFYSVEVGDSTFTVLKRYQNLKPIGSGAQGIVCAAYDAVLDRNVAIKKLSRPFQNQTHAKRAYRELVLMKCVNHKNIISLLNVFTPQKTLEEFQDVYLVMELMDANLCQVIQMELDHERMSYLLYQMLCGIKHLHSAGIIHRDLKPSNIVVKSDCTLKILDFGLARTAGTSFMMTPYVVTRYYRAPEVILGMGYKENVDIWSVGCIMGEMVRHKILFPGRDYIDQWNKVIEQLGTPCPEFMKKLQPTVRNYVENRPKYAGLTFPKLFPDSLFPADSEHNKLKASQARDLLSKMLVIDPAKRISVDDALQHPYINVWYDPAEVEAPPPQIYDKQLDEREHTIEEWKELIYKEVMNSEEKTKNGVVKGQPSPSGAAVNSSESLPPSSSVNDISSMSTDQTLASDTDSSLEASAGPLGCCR
T16 sequence (Q9HCP0 whole entry): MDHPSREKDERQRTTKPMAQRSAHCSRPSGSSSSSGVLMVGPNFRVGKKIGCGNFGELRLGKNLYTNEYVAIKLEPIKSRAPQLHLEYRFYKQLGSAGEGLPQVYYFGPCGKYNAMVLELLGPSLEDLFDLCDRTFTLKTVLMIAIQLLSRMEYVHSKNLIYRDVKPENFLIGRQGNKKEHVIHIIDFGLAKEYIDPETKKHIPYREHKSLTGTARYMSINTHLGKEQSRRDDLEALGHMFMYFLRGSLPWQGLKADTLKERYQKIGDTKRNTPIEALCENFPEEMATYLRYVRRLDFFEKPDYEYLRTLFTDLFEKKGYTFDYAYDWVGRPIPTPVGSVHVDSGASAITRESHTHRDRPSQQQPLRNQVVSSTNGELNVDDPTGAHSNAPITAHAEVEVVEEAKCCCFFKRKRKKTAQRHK
T17 sequence (Q9UM73 19-1620): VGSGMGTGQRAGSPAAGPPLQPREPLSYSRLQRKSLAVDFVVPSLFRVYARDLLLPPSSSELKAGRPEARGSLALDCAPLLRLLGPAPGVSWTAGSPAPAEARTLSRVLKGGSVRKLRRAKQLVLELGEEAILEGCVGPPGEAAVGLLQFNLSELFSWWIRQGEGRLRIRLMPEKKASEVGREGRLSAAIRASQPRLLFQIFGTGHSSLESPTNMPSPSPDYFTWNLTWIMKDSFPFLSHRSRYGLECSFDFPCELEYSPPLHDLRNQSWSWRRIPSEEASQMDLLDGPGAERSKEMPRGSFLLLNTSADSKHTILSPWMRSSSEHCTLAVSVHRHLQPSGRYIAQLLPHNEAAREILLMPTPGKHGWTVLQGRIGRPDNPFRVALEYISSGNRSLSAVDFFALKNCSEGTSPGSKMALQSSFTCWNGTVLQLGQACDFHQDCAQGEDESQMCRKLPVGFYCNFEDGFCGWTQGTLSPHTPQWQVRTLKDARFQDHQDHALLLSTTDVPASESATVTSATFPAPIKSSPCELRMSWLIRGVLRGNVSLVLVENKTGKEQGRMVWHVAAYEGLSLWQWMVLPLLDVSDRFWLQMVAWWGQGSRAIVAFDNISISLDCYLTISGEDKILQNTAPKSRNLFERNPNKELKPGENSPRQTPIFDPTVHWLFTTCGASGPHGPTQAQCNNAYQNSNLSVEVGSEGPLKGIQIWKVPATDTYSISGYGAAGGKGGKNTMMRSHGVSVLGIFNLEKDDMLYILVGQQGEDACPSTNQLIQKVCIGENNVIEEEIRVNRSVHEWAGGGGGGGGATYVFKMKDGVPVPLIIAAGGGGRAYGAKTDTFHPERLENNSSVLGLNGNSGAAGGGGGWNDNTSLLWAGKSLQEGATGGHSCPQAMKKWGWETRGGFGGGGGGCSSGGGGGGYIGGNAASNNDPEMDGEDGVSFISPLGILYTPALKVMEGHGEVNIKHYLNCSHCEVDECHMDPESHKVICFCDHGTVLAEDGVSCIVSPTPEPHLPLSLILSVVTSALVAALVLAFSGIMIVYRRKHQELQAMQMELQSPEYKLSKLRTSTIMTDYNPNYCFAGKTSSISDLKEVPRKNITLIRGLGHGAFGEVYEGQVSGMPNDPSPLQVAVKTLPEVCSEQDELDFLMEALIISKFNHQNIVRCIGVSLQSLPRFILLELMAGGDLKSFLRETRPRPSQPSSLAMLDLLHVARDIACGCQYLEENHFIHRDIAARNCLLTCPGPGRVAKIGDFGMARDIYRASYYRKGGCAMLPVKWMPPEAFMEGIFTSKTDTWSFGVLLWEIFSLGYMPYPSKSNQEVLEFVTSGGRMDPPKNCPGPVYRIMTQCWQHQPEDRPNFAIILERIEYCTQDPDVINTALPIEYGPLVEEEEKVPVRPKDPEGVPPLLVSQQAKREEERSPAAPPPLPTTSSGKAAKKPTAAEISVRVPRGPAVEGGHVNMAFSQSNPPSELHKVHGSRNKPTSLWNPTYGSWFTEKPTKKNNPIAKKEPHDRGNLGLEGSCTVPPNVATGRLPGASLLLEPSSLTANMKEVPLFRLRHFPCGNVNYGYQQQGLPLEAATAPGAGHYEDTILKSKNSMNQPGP
T15 sequence (P42336 whole entry E545K): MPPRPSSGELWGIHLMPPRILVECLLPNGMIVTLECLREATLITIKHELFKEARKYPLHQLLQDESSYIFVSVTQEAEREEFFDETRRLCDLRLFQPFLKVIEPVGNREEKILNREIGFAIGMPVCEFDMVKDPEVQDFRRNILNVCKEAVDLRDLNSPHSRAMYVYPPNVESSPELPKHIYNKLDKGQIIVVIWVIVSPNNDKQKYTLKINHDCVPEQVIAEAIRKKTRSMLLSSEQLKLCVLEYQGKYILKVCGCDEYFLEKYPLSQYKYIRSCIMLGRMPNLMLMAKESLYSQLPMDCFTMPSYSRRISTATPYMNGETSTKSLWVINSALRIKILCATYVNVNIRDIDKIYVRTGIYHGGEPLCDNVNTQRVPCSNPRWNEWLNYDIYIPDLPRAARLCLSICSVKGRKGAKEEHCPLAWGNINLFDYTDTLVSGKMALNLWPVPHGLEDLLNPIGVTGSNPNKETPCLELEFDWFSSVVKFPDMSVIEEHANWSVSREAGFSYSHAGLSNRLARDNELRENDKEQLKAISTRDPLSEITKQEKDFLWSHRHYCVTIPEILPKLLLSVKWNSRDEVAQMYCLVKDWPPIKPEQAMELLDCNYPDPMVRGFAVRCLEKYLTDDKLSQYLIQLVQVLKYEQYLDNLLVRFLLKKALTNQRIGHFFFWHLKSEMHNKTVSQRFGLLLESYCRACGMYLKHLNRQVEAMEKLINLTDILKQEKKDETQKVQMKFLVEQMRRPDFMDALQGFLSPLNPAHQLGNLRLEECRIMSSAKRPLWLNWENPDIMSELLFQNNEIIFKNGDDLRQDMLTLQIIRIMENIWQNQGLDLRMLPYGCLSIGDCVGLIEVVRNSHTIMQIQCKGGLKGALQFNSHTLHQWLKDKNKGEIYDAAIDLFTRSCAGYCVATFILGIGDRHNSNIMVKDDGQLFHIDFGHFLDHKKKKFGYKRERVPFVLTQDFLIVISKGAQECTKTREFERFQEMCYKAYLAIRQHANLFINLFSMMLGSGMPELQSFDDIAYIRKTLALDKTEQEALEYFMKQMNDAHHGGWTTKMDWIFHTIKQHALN

Take `Fc1ccc(-n2cc(CCCCN3CCC4(CC3)OCc3ccccc34)c3ccccc32)cc1` [siramesine]: the “tumor volume versus control” value in the test on PDAC1 xenografts is on record as “no significant differences”; in the test on PDAC3 xenografts (PDAC3 PDX, GEM 125 mg/kg i.p. biweekly, SIR 30 mg/kg oral gavage, 23 days) it was “no significant differences”. The “percentage of CD133+ and CD133+/CXCR4+ in tumors” value in the test with PDAC3 xenografts (PDAC3 tumors, 30 mg/kg) is “reduce”.
In the case of `CN1CCC(CNc2ccc3ncc(C(=O)Nc4cccc(OC(F)(F)F)c4)n3n2)CC1` [Cpd 2], the remaining binding at 1 µM is 93% at EPHB4; 100% at MKK7; 65% at AXL; 100% on CSNK1G2; 100% on FLT1; 89% on KIT(D816V). Moreover, the remaining binding at 1 µM turned out to be 97% on CDK11; 97% on GSK3B; 99% at LIMK2; 85% at PRKCI; 77% at FGR; 100% on JNK3. In addition, the remaining binding at 1 µM on TGFBR2 is 100%; at DYRK1B it was 92%; at PIK3CA(E545K), 87%; on CSNK1G1, 99%; on ALK, 100%.
